From US11401278B2, “Macrocyclic indole derivatives” (The Broad Institute, Inc., priority 2017, dated 2022)
Structures can show the parent of a compound that is named as a salt.

biological target: MCL-1 (Homo sapiens (Human), UniProt Q07820, K194A/K197A/R201A); assay: Protein-protein interaction assay MCL-1/Noxa BH3 peptide (MCL-1 assay, TR-FRET); assay type: binding; conditions: MBP-MCL-1 / Noxa BH3 peptide, median
How it was run: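 TR-FRET competition assay read at 665/620 nm, with a Noxa BH3 tracer peptide (1 nM) plus Eu-cryptate anti-MBP and XL665-streptavidin. Compounds (0.1 nM-20 μM, duplicates) were pre-equilibrated 10 min at 22° C with 1 nM MBP-MCL-1 (173-329) in Tris pH 7, NaCl, KF, DTT buffer, then incubated 1 h at 22° C and overnight at 4° C. IC50 came from 4-parameter regression.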

Sequence of MCL-1 (Q07820 whole entry K194A/K197A/R201A, looked up): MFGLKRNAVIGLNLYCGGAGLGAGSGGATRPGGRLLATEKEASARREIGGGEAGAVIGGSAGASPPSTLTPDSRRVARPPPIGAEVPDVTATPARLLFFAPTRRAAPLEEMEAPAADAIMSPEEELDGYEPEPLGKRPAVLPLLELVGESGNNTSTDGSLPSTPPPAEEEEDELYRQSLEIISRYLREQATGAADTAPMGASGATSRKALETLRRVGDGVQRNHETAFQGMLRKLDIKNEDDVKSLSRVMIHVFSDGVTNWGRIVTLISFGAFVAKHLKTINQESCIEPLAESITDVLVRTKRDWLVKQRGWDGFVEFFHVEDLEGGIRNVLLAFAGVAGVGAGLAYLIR

Row | IC50 | Structure (SMILES)
1 | 21 nM | CCc1c2c(nn1C)C(CCC1CCOCC1)N(C)S(=O)(=O)CCCn1c(C(=O)O)c(CCCOc3cccc4cc(F)ccc34)c3ccc(Cl)c-2c31 (single isomer, unassigned; enantiomer 4) [Example 64, (−)-4-chloro-3-ethyl-7-{3-[(6-fluoronaphthalen-1-yl)oxy]propyl}-2,14-dimethyl-15-[2-(oxan-4-yl)ethyl]-13,13-dioxo-10,11,12,13,14,15-hexahydro-2H-13lambda^6-pyrazolo[3′,4′:4,5][1,2,8]thiadiazacycloundecino[6,7,8-hi]indole-8-carboxylic acid (Enantiomer 4)]
2 | 3.2 nM | CCc1c2c(nn1C)CN(C)S(=O)(=O)CCCn1c(C(=O)O)c(CCCOc3cccc4c3CCCC4)c3ccc(F)c-2c31 (racemic) [Example 34, (rac)-12-Ethyl-13-fluoro-8,11-dimethyl-1-(3-((5,6,7,8-tetrahydronaphthalen-1-yl)oxy)propyl)-5,6,9,11-tetrahydro-4H,8H-pyrazolo[3′,4′:4,5][1]thia[2,8]diazacycloundecino[6,7,8-hi]indole-2-carboxylic acid 7,7-dioxide]
3 | 6.3 nM | CCc1c2c(nn1C)CN(CCCN1CCCC1=O)S(=O)(=O)CCCn1c(C(=O)O)c(CCCOc3cccc4ccccc34)c3cccc-2c31 (racemic) [Example 13, (rac)-12-Ethyl-11-methyl-1-(3-(naphthalen-1-yloxy)propyl)-8-(3-(2-oxopyrrolidin-1-yl)propyl)-5,6,9,11-tetrahydro-4H,8H-pyrazolo[3′,4′:4,5][1]thia[2,8]diazacycloundecino[6,7,8-hi]indole-2-carboxylic acid 7,7-dioxide]
4 | 0.4 nM | Cc1c2c(nn1C)C(CCN1CCOCC1)N(C)S(=O)(=O)CCCn1c(C(=O)O)c(CCCOc3cccc4cc(F)ccc34)c3ccc(Cl)c-2c31 (single isomer, unassigned; enantiomer 2) [Example 67, 4-chloro-7-{3-[(6-fluoronaphthalen-1-yl)oxy]propyl}-2,3,14-trimethyl-15-[2-(morpholin-4-yl)ethyl]-13,13-dioxo-10,11,12,13,14,15-hexahydro-2H-13lambda^6-pyrazolo[3′,4′:4,5][1,2,8]thiadiazacycloundecino[6,7,8-hi]indole-8-carboxylic acid (Enantiomer 2)]
5 | 0.31 nM | Cc1c2c(nn1C)C(CCN1CCOCC1)N(C)S(=O)(=O)CCCn1c(C(=O)O)c(CCCOc3cccc4ccccc34)c3cccc-2c31 (single isomer, unassigned; enantiomer 2) [Example 46, 2,3,14-trimethyl-15-[2-(morpholin-4-yl)ethyl]-7-{3-[(naphthalen-1-yl)oxy]propyl}-13,13-dioxo-10,11,12,13,14,15-hexahydro-2H-13lambda^6-pyrazolo[3′,4′:4,5][1,2,8]thiadiazacycloundecino[6,7,8-hi]indole-8-carboxylic acid N-ethylethanamine Salt (Enantiomer 2)]
6 | 3.6 nM | CCc1c2c(nn1C)CN(C)S(=O)(=O)CCCn1c(C(=O)O)c(CCCOc3cccc4ccccc34)c3ccc(F)c-2c31 (racemic) [Example 31, (rac)-12-Ethyl-13-fluoro-8,11-dimethyl-1-(3-(naphthalen-1-yloxy)propyl)-5,6,9,11-tetrahydro-4H,8H-pyrazolo[3′,4′:4,5][1]thia[2,8]diazacycloundecino[6,7,8-hi]indole-2-carboxylic acid 7,7-dioxide]
7 | 3.1 nM | CCc1c2c(nn1C)CN(C)S(=O)(=O)CCCn1c(C(=O)O)c(CCCOc3cc(C)c(Cl)c(C)c3)c3ccc(Cl)c-2c31 [Example 22, (rac)-13-Chloro-1-(3-(4-chloro-3,5-dimethylphenoxy)propyl)-12-ethyl-8,11-dimethyl-4,5,6,8,9,11-hexahydropyrazolo[3′,4′:4,5][1,2,8]thiadiazacycloundecino[6,7,8-hi]indole-2-carboxylic acid 7,7-dioxide]
8 | 0.8 nM | Cc1c2c(nn1C)C(N1CCOCC1)CCN(C)S(=O)(=O)CCCn1c(C(=O)O)c(CCCOc3cccc4cc(F)ccc34)c3ccc(Cl)c-2c31 (racemic) [Example 47, (rac)-15-chloro-1-(3-((6-fluoronaphthalen-1-yl)oxy)propyl)-8,13,14-trimethyl-11-(rac)-morpholino-5,6,9,10,11,13-hexahydro-4H,8H-pyrazolo[3′,4′:6,7][1]thia[2,10]diazacyclotridecino[8,9,10-hi]indole-2-carboxylic acid 7,7-dioxide (Mixture of Stereoisomers)]
9 | 23 nM | Cc1c2c(nn1C)CN(C)S(=O)(=O)CCCn1c(C(=O)O)c(CCCOc3cccc4cc(F)ccc34)c3ccc(F)c-2c31 (single isomer, unassigned; enantiomer 1) [Example 38, (−)-4-fluoro-7-{3-[(6-fluoronaphthalen-1-yl)oxy]propyl}-2,3,14-trimethyl-13,13-dioxo-10,11,12,13,14,15-hexahydro-2H-13lambda^6-pyrazolo[3′,4′:4,5][1,2,8]thiadiazacycloundecino-[6,7,8-hi]indole-8-carboxylic acid (Enantiomer 1)]
10 | 23 nM | Cc1c2c(nn1C)CNS(=O)(=O)CCCn1c(C(=O)O)c(CCCOc3cccc4cc(F)ccc34)c3ccc(Cl)c-2c31 (single isomer, unassigned; enantiomer 2) [Example 52, 4-chloro-7-{3-[(6-fluoronaphthalen-1-yl)oxy]propyl}-2,3-dimethyl-13,13-dioxo-10,11,12,13,14,15-hexahydro-2H-13lambda^6-pyrazolo[3′,4′:4,5][1,2,8]thiadiazacycloundecino[6,7,8-hi]indole-8-carboxylic acid (Enantiomer 2)]

More lines, now with the values behind:

Row | Structure (SMILES) | IC50
11 | Cc1c2c(nn1C)CN(C1CC1)S(=O)(=O)CCCn1c(C(=O)O)c(CCCOc3cccc4ccccc34)c3ccc(Cl)c-2c31 [Example 40, (rac)-4-chloro-14-cyclopropyl-2,3-dimethyl-7-[3-(1-naphthyloxy)propyl]-11,12,14,15-tetrahydro-2H,10H-pyrazolo[3′,4′:4,5][1,2,8]thiadiazacycloundecino[6,7,8-hi]indole-8-carboxylic acid 13,13-dioxide] | 2.1 nM
12 | CCc1c2c(nn1C)CN(C)S(=O)(=O)CCCn1c(C(=O)O)c(CCCOc3ccc(F)c4ccccc34)c3ccc(Cl)c-2c31 [Example 24, (rac)-13-Chloro-12-ethyl-1-(34(4-fluoronaphthalen-1-yl)oxy)propyl)-8,11-dimethyl-4,5,6,8,9,11-hexahydropyrazolo[3′,4′:4,5][1,2,8]thiadiazacycloundecino[6,7,8-hi]indole-2-carboxylic acid 7,7-dioxide] | 3.4 nM
13 | COc1ccc(CN2Cc3nn(C)c(C)c3-c3c(Cl)ccc4c(CCCOc5cccc6cc(F)ccc56)c(C(=O)O)n(c34)CCCS2(=O)=O)c(OC)c1 (racemic) [Example 49, (rac)-4-chloro-14-(2,4-dimethoxybenzyl)-7-{3-[(6-fluoro-1-naphthyl)oxy]propyl}-2,3-dimethyl-11,12,14,15-tetrahydro-2H,10H-pyrazolo[3′,4′:4,5][1,2,8]thiadiazacycloundecino[6,7,8-hi]indole-8-carboxylic acid 13,13-dioxide] | 3.2 nM
14 | CCc1c2c(nn1C)CN(C)S(=O)(=O)CCCn1c(C(=O)O)c(CCCOc3cccc4cc(F)ccc34)c3ccc(Cl)c-2c31 (single isomer, unassigned; enantiomer 1) [Example 36, (+)-4-chloro-3-ethyl-7-{3-[(6-fluoronaphthalen-1-yl)oxy]propyl}-2,14-dimethyl-13,13-dioxo-10,11,12,13,14,15-hexahydro-2H-13lambda^6-pyrazolo[3′,4′:4,5][1,2,8]thiadiazacycloundecino-[6,7,8-hi]indole-8-carboxylic acid (Enantiomer 1)] | 0.6 nM
15 | Cc1c2c(nn1C)CN(C1CC1)S(=O)(=O)CCCn1c(C(=O)O)c(CCCOc3cccc4cc(F)ccc34)c3ccc(Cl)c-2c31 (single isomer, unassigned; enantiomer 2) [Example 43, (+)-4-chloro-14-cyclopropyl-7-{3-[(6-fluoro-1-naphthyl)oxy]propyl}-2,3-dimethyl-11,12,14,15-tetrahydro-2H,10H-pyrazolo[3′,4′:4,5][1,2,8]thiadiazacycloundecino[6,7,8-hi]indole-8-carboxylic acid 13,13-dioxide N-diethylamine salt (Enantiomer 2)] | 6.2 nM
16 | Cc1c2c(nn1C)CN(C)S(=O)(=O)CCCn1c(C(=O)O)c(CCCOc3cccc4ccccc34)c3ccc(Cl)c-2c31 (single isomer, unassigned; enantiomer 2) [Example 6, 4-Chloro-2,3,14-trimethyl-7-{3-[(naphthalen-1-yl)oxy]propyl}-13,13-dioxo-10,11,12,13,14,15-hexahydro-2H-13λ^6-pyrazolo[3′,4′:4,5][1,2,8]thiadiazacycloundecino[6,7,8-hi]indole-8-carboxylic acid-N-ethylethanamine salt (Enantiomer 2)] | 11 nM
17 | CCc1c2c(nn1C)CN(C)S(=O)(=O)CCCn1c(C(=O)O)c(CCCOc3cccc4cc(F)ccc34)c3ccc(F)c-2c31 (racemic) [Example 7, (rac)-12-Ethyl-13-fluoro-1-(3-((6-fluoronaphthalen-1-yl)oxy)propyl)-8,11-dimethyl-5,6,9,11-tetrahydro-4H,8H-pyrazolo[3′,4′:4,5][1]thia[2,8]diazacycloundecino[6,7,8-hi]indole-2-carboxylic acid 7,7-dioxide] | 1.3 nM
18 | Cc1cc(OCCCc2c(C(=O)O)n3c4c(c(F)ccc24)-c2c(nn(C)c2C)CN(C)S(=O)(=O)CCC3)cc(C)c1Cl (racemic) [Example 28, (rac)-1-(3-(4-Chloro-3,5-dimethylphenoxy)propyl)-13-fluoro-8,11,12-trimethyl-5,6,9,11-tetrahydro-4H,8H-pyrazolo[3′,4′:4,5][1]thia[2,8]diazacycloundecino[6,7,8-hi]indole-2-carboxylic acid 7,7-dioxide] | 4 nM
